Results: ChEMBL document CHEMBL5512623, “Discovery of the novel and potent histamine H1 receptor antagonists for treatment of allergic diseases” (Eur J Med Chem, 2024)

Key:
[1] = target: Muscarinic acetylcholine receptor M3 (Homo sapiens, UniProt P20309); assay: Antagonist activity at human muscarinic M3 receptor expressed in PathHunter U2OS CHRM3 beta-arrestin cells preincubated for 30 mins followed by agonist addition at 6 times EC80 and measured after 90 to 180 mins by PathHunter assay; type: functional, cell-based
Sequence of Muscarinic acetylcholine receptor M3 (P20309 whole entry): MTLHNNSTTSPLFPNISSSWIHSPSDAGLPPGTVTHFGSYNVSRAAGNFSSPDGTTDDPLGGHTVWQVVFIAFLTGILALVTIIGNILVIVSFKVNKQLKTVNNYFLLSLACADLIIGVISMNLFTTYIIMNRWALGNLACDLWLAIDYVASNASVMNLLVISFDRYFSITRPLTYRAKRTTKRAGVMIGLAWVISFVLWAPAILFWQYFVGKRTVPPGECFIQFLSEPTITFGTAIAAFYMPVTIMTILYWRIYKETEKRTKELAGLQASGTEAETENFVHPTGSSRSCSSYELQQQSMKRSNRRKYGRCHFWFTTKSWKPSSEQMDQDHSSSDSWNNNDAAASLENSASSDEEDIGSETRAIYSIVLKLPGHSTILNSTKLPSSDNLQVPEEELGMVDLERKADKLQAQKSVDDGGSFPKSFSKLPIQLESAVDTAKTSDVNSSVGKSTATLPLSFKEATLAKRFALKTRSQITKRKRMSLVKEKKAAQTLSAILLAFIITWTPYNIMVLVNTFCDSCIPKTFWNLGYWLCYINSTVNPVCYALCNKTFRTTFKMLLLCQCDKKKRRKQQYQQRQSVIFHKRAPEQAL

[2] = target: Voltage-gated inwardly rectifying potassium channel KCNH2 (Homo sapiens, UniProt Q12809); assay: Inhibition of hERG in HEK293 cells measured after 5 mins by patch-clamp assay
Sequence of Voltage-gated inwardly rectifying potassium channel KCNH2 (Q12809 whole entry): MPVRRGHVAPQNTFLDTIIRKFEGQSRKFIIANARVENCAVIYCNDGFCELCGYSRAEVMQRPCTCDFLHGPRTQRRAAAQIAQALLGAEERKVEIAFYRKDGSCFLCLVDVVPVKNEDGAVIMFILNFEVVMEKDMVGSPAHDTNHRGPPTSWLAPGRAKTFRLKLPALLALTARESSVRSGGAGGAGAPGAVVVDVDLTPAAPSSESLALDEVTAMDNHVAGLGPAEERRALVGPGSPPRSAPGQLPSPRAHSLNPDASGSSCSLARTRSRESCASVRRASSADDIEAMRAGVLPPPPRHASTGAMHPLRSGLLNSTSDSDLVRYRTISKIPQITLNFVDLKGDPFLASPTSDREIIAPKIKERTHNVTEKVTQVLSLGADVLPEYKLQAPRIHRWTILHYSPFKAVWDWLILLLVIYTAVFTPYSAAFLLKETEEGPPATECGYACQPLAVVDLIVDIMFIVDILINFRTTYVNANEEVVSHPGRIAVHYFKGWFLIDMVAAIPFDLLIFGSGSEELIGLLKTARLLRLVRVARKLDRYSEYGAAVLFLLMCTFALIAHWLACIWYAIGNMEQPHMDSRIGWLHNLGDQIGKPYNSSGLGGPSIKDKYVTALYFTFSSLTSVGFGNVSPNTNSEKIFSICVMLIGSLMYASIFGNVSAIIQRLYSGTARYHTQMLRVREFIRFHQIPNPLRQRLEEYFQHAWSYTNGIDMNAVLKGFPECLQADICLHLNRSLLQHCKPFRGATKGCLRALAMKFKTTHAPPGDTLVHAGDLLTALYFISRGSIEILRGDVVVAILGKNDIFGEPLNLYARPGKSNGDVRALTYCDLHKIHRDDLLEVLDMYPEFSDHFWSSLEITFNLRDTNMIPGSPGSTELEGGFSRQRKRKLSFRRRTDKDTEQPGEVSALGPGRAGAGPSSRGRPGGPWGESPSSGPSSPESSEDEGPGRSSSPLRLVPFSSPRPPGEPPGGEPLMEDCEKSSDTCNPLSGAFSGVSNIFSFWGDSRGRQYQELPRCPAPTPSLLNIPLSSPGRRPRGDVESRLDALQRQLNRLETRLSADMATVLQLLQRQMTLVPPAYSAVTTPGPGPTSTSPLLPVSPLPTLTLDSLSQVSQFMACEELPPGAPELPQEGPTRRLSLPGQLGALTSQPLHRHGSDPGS

[3] = Cmax in male Sprague-Dawley rat plasma at 10 mg/kg, IG administered as single dose; type: ADME, organism-based; settings: po
[4] = Cmax in male Sprague-Dawley rat brain at 10 mg/kg, IG administered as single dose; type: ADME, organism-based; settings: po
[5] = Cmax in female Sprague-Dawley rat brain at 10 mg/kg, IG administered as single dose; type: ADME, organism-based; settings: po
[6] = Cmax in female Sprague-Dawley rat plasma at 10 mg/kg, IG administered as single dose; type: ADME, organism-based; settings: po
[7] = Apparent permeability across basolateral to apical side in human Caco-2 cells at 5 uM measured at 60 mins; type: ADME, cell-based
[8] = Efflux ratio of apparent permeability across basolateral to apical over apical to basolateral side in human Caco-2 cells at 5 uM measured at 60 mins; type: ADME, cell-based
[9] = Apparent permeability across apical to basolateral side in human Caco-2 cells at 5 uM measured at 60 mins; type: ADME, cell-based

Row | IC50 [1] | Structure (SMILES) | IC50 [2] | further results
1 | > 10 µM | CC(C)(C(=O)O)c1cccc(NCCN2CCC(=C3c4ccc(Cl)cc4CCc4cccnc43)CC2)c1 |  | 
2 | > 10 µM | CC(C)(C(=O)O)c1ccc(CN2CCC(=C3c4ccc(Cl)cc4CCc4cccnc43)CC2)cc1 | 18.4 µM | 
3 | > 10 µM | CC(C)(C(=O)O)c1ccc(CCCN2CCC(=C3c4ccc(Cl)cc4CCc4cccnc43)CC2)nc1 |  | 
4 | > 10 µM | NC(=O)c1cn(CCN2CCC(=C3c4ccc(Cl)cc4CCc4cccnc43)CC2)nn1 | 6.36 µM | 
5 | > 10 µM | CC(C)(C(=O)O)c1ccccc1CCCN1CCC(=C2c3ccc(Cl)cc3CCc3cccnc32)CC1 |  | 
6 | > 10 µM | CC(C)(C(=O)O)c1ccc(CCCN2CCC(=C3c4ccc(Cl)cc4CCc4cccnc43)CC2)c(F)c1 | 30.1 µM | 
7 |  | Clc1ccc2c(c1)CCc1cccnc1C2=C1CCNCC1 [DESLORATADINE] |  | Cmax [3]: 112 ng/g; Cmax [4]: 843 ng/g; Cmax [5]: 1180 ng/g; Cmax [6]: 549 ng/g
8 |  | CC(C)NCC(O)COc1cccc2ccccc12 (stereo unspecified) [PROPRANOLOL] |  | Papp B→A at 1 h, 5 µM [7]: 20.5 ×10⁻⁶ cm/s; efflux ratio at 1 h, 5 µM [8]: 0.59; Papp A→B at 1 h, 5 µM [9]: 34.8 ×10⁻⁶ cm/s
